Common to all, as to assay type: in vivo
In one experiment the test system is Musca domestics. As to the kind of experiment: Test Example 3: filter paper with sucrose bait, Musca domestica imagoes. The following applies: 0.7 ml on filter paper, ten female imagoes, after 24 hours, read-out: rate of dead pests. How it is done:
The formulation obtained according to Formulation Example 5 using the present invention compounds (1), (2), (4), (8), (9), (10), (11), (13), (14) and (15) respectively, was diluted with water so that the active ingredient concentration came to 500 ppm to prepare a pesticidal solution for test.
On the bottom of a polyethylene cup having a diameter of 5.5 cm, a filter paper having the same diameter was laid, and 0.7 ml of the above pesticidal solution for test was added dropwise on the filter paper, followed by putting 30 mg of sucrose on it uniformly as a bait. Ten female Musca domestics imagoes were set free in the polyethylene cup and covered it with a lid. After 24 hours, the number of surviving Musca domestics was examined and the rate of dead pests was calculated.

For another experiment, the system named is Blattella germanica. As to the kind of experiment: Test Example 4: filter paper with sucrose bait, Blattella germanica imagoes. The settings on record: 144 h, 0.7 ml on filter paper, two male imagoes, after 6 days, read-out: rate of dead pests. How it is done:
The formulation obtained according to Formulation Example 5 using the present invention compounds (1), (4), (8), (9), (11), (12), (13) and (14) respectively, was diluted with water so that the active ingredient concentration came to 500 ppm to prepare a pesticidal solution for test.
On the bottom of a polyethylene cup having a diameter of 5.5 cm, a filter paper having the same diameter was laid, and 0.7 ml of the above pesticidal solution for test was added dropwise on the filter paper, followed by putting 30 mg of sucrose on it uniformly as a bait. Two male Blattella germanica imagoes were set free in the polyethylene cup and covered it with a lid. After 6 days, the number of surviving Blattella germanica was examined and the rate of dead pests was calculated.

For another experiment, the system named is Culex pipiens pallens. The experiment can be described thus: Test Example 5: larvae in treated water, Culex pipiens pallens. The following applies: 24 h, active ingredient concentration 3.5 ppm in water, twenty last-instar larvae, after one day, read-out: rate of dead pests. The procedure: The formulation obtained according to Formulation Example 5 using the present invention compounds (3), (4), (8), (9), (10), (11), (12), (13), (14) and (15) respectively, was diluted with water so that the active ingredient concentration came to 500 ppm to prepare a pesticidal solution for test. 0.7 ml of above pesticidal solution for test was added to 100 ml of ion exchanged water (active ingredient concentration: 3.5 ppm). Twenty last-instar larvae of Culex pipiens pallens were set free in the solution. After one day, the number of surviving Culex pipiens pallens was examined and the rate of dead pests was calculated.

A value given as a limit tells only on which side of the number the result lay.

The record followed here is patent US20050176784A1, “Malononitrile compounds and their use as pesticides” (priority 2002, published 2005).

Take `N#CC(C#N)(CCC(F)(F)F)Cc1ccc(F)nc1` [Compound 13, 2-((6-fluoro-3-pyridyl)methyl)-2-(3,3,3-trifluoropropyl)malononitrile]: the pest or weed control at 500 ppm with Musca domestics was not below 90%; in the experiment with Blattella germanica it was 100%. Also, in the experiment with Culex pipiens pallens, the pest or weed control at 3.5 ppm worked out at 100%.

Regarding `C#Cc1ccc(CC(C#N)(C#N)CCC(F)(F)F)cn1` [Compound 11, 2-((6-ethynyl-3-pyridyl)methyl)-2-(3,3,3-trifluoropropyl)malononitrile], the pest or weed control at 500 ppm in the experiment with Musca domestics is not below 90%; in the experiment with Blattella germanica, 100%. For the same compound, in the experiment with Culex pipiens pallens, the pest or weed control at 3.5 ppm is 100%.

Regarding `N#CC(C#N)(CCC(F)(F)F)Cc1ccc(C(F)(F)F)nc1` [Compound 9, 2-((6-(trifluoromethyl)-3-pyridyl)methyl)-2-(3,3,3-trifluoropropyl)malononitrile], the values for the pest or weed control at 500 ppm in the experiment on Musca domestics and in the experiment on Blattella germanica were not below 90% and 100%, respectively. In addition, in the experiment on Culex pipiens pallens, the pest or weed control at 3.5 ppm amounted to 100%.

With `C=CCC(C#N)(C#N)C(C#N)c1ccc(Cl)nc1` (stereo not shown) [Compound 2, 1-(6-Chloro-3-pyridyl)-1,2,2-tricyano-4-pentene], the pest or weed control at 500 ppm in the experiment on Musca domestics is not below 90%.

With `N#CC(C#N)(CCC(F)(F)F)Cc1cccc(Cl)n1` [Compound 8, 2-((6-chloro-2-pyridyl)methyl)-2-(3,3,3-trifluoropropyl)malononitrile], the pest or weed control at 500 ppm with Musca domestics is not below 90%; in the experiment on Blattella germanica it was 100%. Further, the pest or weed control at 3.5 ppm in the experiment on Culex pipiens pallens is 100%.

Take `N#CC(C#N)(CCC(F)(F)F)Cc1cccc(Br)n1` [Compound 14, 2-((6-bromo-2-pyridyl)methyl)-2-(3,3,3-trifluoropropyl)malononitrile]: the pest or weed control at 500 ppm with Musca domestics was not below 90%; in the experiment on Blattella germanica, 100%. In the experiment with Culex pipiens pallens, the pest or weed control at 3.5 ppm was 100%.

Turning to `N#Cc1ccc(CC(C#N)(C#N)CCC(F)(F)F)cn1` [Compound 12, 2-((6-cyano-3-pyridyl)methyl)-2-(3,3,3-trifluoropropyl)malononitrile], the pest or weed control at 500 ppm with Blattella germanica was determined as 100%. Besides, the pest or weed control at 3.5 ppm in the experiment on Culex pipiens pallens was 100%.

With `N#CC(C#N)(CCC(F)(F)F)Cc1ccc(Cl)nc1` [Compound 4, 2-((6-Chloro-3-pyridyl)methyl)-2-(3,3,3-trifluoropropyl)malononitrile], the pest or weed control at 500 ppm in the experiment with Musca domestics is not below 90%; in the experiment with Blattella germanica, 100%. In addition, the pest or weed control at 3.5 ppm in the experiment on Culex pipiens pallens came to 100%.

Regarding `N#CC(C#N)(CCC(F)=C(F)F)Cc1ccc(Cl)nc1` [Compound 3, 2-((6-Chloro-3-pyridyl)methyl)-2-(3,4,4-trifluoro-3-butenyl)malononitrile], the pest or weed control at 3.5 ppm in the experiment with Culex pipiens pallens stood at 100%.

In the case of `N#CC(C#N)(CCC(F)(F)F)Cc1ccc(Br)nc1` [Compound 10, 2-((6-bromo-3-pyridyl)methyl)-2-(3,3,3-trifluoropropyl)malononitrile], the pest or weed control at 500 ppm in the experiment on Musca domestics was not below 90%. In the experiment with Culex pipiens pallens, the pest or weed control at 3.5 ppm was 100%.

With `C=CCC(C#N)(C#N)Cc1ccc(Cl)nc1` [Compound 1, 2-allyl-2-((6-Chloro-3-pyridyl)methyl)malononitrile], the pest or weed control at 500 ppm was not below 90% in the experiment with Musca domestics and 100% in the experiment with Blattella germanica.

For the compound `N#CC(C#N)(CCC(F)(F)F)Cc1cnc(Cl)c(Cl)c1` [Compound 15, 2-((5,6-dichloro-3-pyridyl)methyl)-2-(3,3,3-trifluoropropyl)malononitrile], in the experiment with Musca domestics, the pest or weed control at 500 ppm is not below 90%. The pest or weed control at 3.5 ppm with Culex pipiens pallens came out at 100%.
